{
  "source": "patent US8030336B2",
  "about": "“Nicotinamide-based kinase inhibitors” (YM Biosciences Australia Pty Ltd, priority 2002, dated 2011)",
  "type_in_all_cases": "biochemical",
  "key": {"human JAK2": {"target": "T1, human JAK2 (Homo sapiens, UniProt O60674)", "T1 construct": "The kinase domain of human JAK2 was amplified from U937mRNA; His tag (from the pFastBac HTc vector) (N); made in house; host or cells: baculovirus; Sf9 for virus, High Five insect cells for production", "T1 sequence (O60674 849-1124 limits assumed)": "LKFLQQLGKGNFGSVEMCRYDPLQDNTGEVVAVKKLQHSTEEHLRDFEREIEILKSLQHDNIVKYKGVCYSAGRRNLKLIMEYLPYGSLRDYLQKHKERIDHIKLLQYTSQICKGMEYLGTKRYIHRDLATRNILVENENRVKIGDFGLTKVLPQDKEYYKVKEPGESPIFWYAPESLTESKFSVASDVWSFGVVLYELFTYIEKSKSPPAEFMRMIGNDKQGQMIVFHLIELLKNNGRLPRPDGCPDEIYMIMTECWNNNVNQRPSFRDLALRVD", "assay": "JAK2 kinase assay (ELISA or Alphascreen)", "settings": "read-out: Jak2 inhibition of enzyme activity", "method_in_brief": "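His-tagged human JAK2 kinase domain from baculovirus-infected insect cells, ~1.5 μg per assay, in 50 mM HEPES pH 7.5, 10 mM MgCl2, 150 mM NaCl, with 10 μM–1 mM ATP and 5 μM biotinylated peptide substrate. Phosphotyrosine detected by PY20 ELISA or AlphaScreen.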"}, "human JAK3": {"target": "T2, human JAK3 (Homo sapiens, UniProt P52333)", "T2 construct": "The kinase domain of human JAK3 was amplified from U937mRNA; His tag (from the pFastBac HTb vector) (N); made in house; host or cells: baculovirus; Sf9 for virus, High Five insect cells for production", "T2 sequence (P52333 822-1111 limits assumed)": "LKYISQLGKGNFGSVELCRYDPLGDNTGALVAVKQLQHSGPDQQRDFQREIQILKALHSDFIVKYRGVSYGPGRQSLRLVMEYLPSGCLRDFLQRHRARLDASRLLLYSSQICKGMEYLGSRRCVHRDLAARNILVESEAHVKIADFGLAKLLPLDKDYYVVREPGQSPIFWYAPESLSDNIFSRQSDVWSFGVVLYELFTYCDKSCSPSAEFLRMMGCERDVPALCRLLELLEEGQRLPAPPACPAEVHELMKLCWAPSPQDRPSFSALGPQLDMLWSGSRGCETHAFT", "assay": "JAK3 kinase assay (ELISA or Alphascreen)", "settings": "read-out: Jak3 inhibition of enzyme activity", "method_in_brief": "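Read-out: anti-phosphotyrosine detection of a 5 μM biotin-peptide substrate, via PY20-peroxidase ELISA or Alphascreen beads. Enzyme was nickel-purified recombinant JAK3 kinase domain (~1.5 μg), with ATP at 10 μM-1 mM, pH 7.5 HEPES/MgCl2/NaCl.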"}, "abl": {"target": "T3, abl (Homo sapiens, UniProt P00519)", "T3 sequence (P00519 242-493 limits assumed)": "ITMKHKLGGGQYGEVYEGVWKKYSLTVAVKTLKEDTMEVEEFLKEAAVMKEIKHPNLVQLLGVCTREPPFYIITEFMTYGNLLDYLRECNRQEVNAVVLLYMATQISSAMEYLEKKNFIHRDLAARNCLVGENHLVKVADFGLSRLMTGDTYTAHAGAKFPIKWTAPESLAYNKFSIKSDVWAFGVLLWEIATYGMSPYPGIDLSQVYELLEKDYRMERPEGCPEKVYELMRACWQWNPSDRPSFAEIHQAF", "assay": "abl kinase assay (ELISA or Alphascreen)", "settings": "read-out: abl inhibition of enzyme activity", "method_in_brief": "(§1)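 PTK domain ~1.5 μg; 50 mM HEPES pH 7.5, 10 mM MgCl2, 150 mM NaCl; ATP 10 μM-1 mM; biotinylated peptide 5 μM final. Read-out: avidin-capture ELISA with PY20 or Alphascreen pTyr acceptor/streptavidin donor beads.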"}, "fes": {"target": "fes (Homo sapiens, UniProt P07332)", "sequence (P07332 561-822 limits assumed, species assumed)": "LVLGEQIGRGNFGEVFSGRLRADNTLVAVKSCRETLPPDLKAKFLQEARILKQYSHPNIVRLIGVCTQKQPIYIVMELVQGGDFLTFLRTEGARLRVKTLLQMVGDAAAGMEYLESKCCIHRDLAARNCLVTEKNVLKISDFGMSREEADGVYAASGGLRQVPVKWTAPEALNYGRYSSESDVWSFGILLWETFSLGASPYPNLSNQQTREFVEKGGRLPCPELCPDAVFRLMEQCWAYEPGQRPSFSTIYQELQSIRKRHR", "assay": "fes kinase assay (ELISA or Alphascreen)", "settings": "read-out: fes inhibition of enzyme activity", "method_in_brief": "as §1"}, "fms": {"target": "T4, fms (Homo sapiens, UniProt P07333)", "T4 sequence (P07333 582-910 limits assumed)": "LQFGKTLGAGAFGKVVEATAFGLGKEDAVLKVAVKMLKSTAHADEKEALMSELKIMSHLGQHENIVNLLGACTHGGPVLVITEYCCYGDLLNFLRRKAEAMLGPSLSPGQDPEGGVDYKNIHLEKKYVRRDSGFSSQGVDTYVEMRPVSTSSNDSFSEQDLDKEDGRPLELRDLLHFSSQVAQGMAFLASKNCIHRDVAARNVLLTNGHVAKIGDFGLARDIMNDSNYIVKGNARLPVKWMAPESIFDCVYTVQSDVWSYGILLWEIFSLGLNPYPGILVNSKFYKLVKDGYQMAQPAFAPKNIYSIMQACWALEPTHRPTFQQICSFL", "assay": "fms kinase assay (ELISA or Alphascreen)", "settings": "read-out: fms inhibition of enzyme activity", "method_in_brief": "as §1"}, "hck": {"target": "hck (Homo sapiens, UniProt P08631)", "sequence (P08631 262-515 limits assumed, species assumed)": "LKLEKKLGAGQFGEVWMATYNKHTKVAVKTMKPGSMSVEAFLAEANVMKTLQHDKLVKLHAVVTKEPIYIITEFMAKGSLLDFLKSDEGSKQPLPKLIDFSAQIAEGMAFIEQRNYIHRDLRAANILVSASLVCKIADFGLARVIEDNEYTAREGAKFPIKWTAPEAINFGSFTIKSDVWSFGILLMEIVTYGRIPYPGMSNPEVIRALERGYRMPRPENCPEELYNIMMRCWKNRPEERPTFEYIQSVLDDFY", "assay": "hck kinase assay (ELISA or Alphascreen)", "settings": "read-out: hck inhibition of enzyme activity", "method_in_brief": "as §1"}, "Zap70": {"target": "T5, Zap70 (Homo sapiens, UniProt P43403)", "T5 sequence (P43403 338-600 limits assumed)": "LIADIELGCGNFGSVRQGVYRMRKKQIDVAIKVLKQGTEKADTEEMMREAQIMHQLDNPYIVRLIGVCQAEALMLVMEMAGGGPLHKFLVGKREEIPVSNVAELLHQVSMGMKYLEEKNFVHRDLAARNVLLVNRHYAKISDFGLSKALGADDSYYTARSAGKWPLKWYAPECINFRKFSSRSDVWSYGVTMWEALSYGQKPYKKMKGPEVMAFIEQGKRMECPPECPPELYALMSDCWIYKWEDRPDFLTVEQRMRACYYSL", "assay": "Zap70 kinase assay (ELISA or Alphascreen)", "settings": "read-out: Zap70 inhibition of enzyme activity", "method_in_brief": "as §1"}},
  "data": [
    {"molecule": "COc1cc(-c2cncc(C(=O)Nc3cc(F)ccc3C)c2)c(Cl)c(OC)c1OC", "values": [
      {"measurement": "inhibition at 10 µM", "setting": "human JAK2", "value": "< 50", "unit": "%"},
      {"measurement": "inhibition at 10 µM", "setting": "human JAK3", "value": "< 50", "unit": "%"},
      {"measurement": "inhibition at 10 µM", "setting": "abl", "value": "< 50", "unit": "%"},
      {"measurement": "inhibition at 10 µM", "setting": "fes", "value": "< 50", "unit": "%"},
      {"measurement": "inhibition at 10 µM", "setting": "fms", "value": "≥ 50", "unit": "%"},
      {"measurement": "inhibition at 10 µM", "setting": "hck", "value": "≥ 50", "unit": "%"},
      {"measurement": "inhibition at 10 µM", "setting": "Zap70", "value": "< 50", "unit": "%"}
    ]}
  ]
}
